Results taken from patent publication US8334299B2, “β-carboline for the treatment of neurodegenerative diseases” (Ellneuroxx, Ltd., priority 2007, dated 2012).

B1: GDNF: the protein glial cell line-derived neurotrophic factor, infused in Parkinson patients (Love et al.) (protein, UniProt P39905 78-211, looked up)
Glial cell line-derived …: SPDKQMAVLPRRERNRQAAAANPENSRGKGRRGQRGKNRGCVLTAIHLNVTDLGLGYETKEELIFRYCSGSCDAAETTYDKILKNLSRNRRLVSDKVGQACCRPIAFDDDLSFLDDNLVYHILRKHSAKRCGCI

Test system: dopamine concentration in the striatum
Assay: Chronic MPP+ infusion model of Parkinson's disease, dopamine concentration in the striatum
Type: in vivo, rat
Parameters: key to Anti-Parkinson test in comparison to 9-methyl-β-carboline: +: slightly better than 9-methyl-β-carboline; ±: the same as 9-methyl-β-carboline; −: slightly worse than 9-methyl-β-carboline
Conditions: tested as described in example 8
Excerpt: In the diagram the dopamine (DA) levels of the left and right striatum of the single rats are indicated.
To investigate Parkinson's disease acute in vivo models are used for years although chronic models would be a better model for the disease. Another disadvantage of the acute models is that ca. 40% of the animals die from the application of the neurotoxin. Therefore, we have chosen a chronic model in which comparably very low doses of neurotoxin 1-methyl-4-phenylpyridinium (MPP^+) were infused for 28 days into the left lateral ventricle of the rat brain. The substance was continuously applied through osmotic minipumps. Thereby, casualties were completely avoided. After four weeks, either solvent or equimolar amounts of the sample substance, namely neuroprotective betacarboline, resp. 9-alkyl-betacarboline was infused for two weeks via the same catheter. In a preliminary study for dose-finding the MPP^+ dose which leads to a reduction by 40% of the dopamine concentration in the striatum was determined. The dopamine concentration in the striatum is a characteristic marker for Parkinson's disease in which a degeneration of dopaminergic neurons occurs.
The compounds A to L were tested as described in example 8. The test results of the compounds A to L are indicated in the following table in comparison to 9-methyl-β-carboline.

Molecule | Anti-Parkinson test in comparison to 9-methyl-β-carboline
CCCn1c2ccccc2c2ccncc21 [Compound A] | +
CCCCCCn1c2ccccc2c2ccncc21 [Compound B] | ±
CCCCCCCCCCCCCCn1c2ccccc2c2ccncc21 [Compound C] | ±
C=CCn1c2ccccc2c2ccncc21 [Compound D] | +
CC(C)Cn1c2ccccc2c2ccncc21 [Compound E] | +
CCn1c2ccccc2c2ccncc21 [Compound F] | ±
COCCn1c2ccccc2c2ccncc21 [Compound G] | ±
C#CCn1c2ccccc2c2ccncc21 [Compound H] | +
c1ccc(Cn2c3ccccc3c3ccncc32)cc1 [Compound I] | −
COC(=O)CCn1c2ccccc2c2ccncc21 [Compound J] | ±
CC(C)C(C)Cn1c2ccccc2c2ccncc21 (centres unmarked) [Compound K] | ±
CN(C)CCn1c2ccccc2c2ccncc21 [Compound L] | +

Test system: dopaminergic neurons in the anterior putamen
Assay: not given
Conditions: patients suffering from Parkinson's disease, infusion; cited from earlier work

Molecule | cellular extensions of dopaminergic neurons in the anterior putamen | clinical symptoms
B1 | growth of cellular extensions | improvement in clinical symptoms
